According to patent publication US8841482B2, “Method for synthesizing rare earth metal extractant” (Shin-Etsu Chemical Co., Ltd., priority 2010, dated 2014):
Blank lines part the entries; values can stand above or below the compound they belong to.

Assay: extraction/separation performance test (solvent extraction of Pr/Nd, back extraction, ICP atomic emission)
Format: physicochemical
Details: aqueous Pr:Nd 1:1, 0.1 mol/L Pr+Nd, 20° C.
Method: The stoichiometric amount of the reaction product, D2EHDGAA in Example 1 or Comparative Example 1 was diluted with hexanol to form an organic solution having a D2EHDGAA concentration of 0.3 mol/L, which might become an organic phase.
A mixed rare earth metal aqueous solution was prepared by dissolving praseodymium chloride and neodymium chloride in water in a molar ratio Pr:Nd of 1:1 and a concentration of 0.1 mol/L of Pr+Nd to form an aqueous solution, which might become an aqueous phase. A separatory funnel was charged with 100 mL of the organic solution and 100 mL of the aqueous solution and shaken at 20° C. for about 20 minutes to effect extraction. After equilibrium was reached, the liquid was allowed to separate into organic and aqueous phases. A separatory funnel was charged with 100 mL of the thus separated organic phase and 100 mL of 5N hydrochloric acid and shaken at 20° C. for about 20 minutes whereby the rare earth element once extracted in the organic phase was back extracted in the hydrochloric acid aqueous solution. The concentrations of praseodymium and neodymium in the aqueous phase and the back-extracted hydrochloric acid aqueous solution were measured by an ICP atomic emission spectrometer ICP-7500 (Shimadzu Corp.).
The stoichiometric amount of the reaction product, D2EHDGAA in Example 5, 6 or Comparative Example 5, 6 was diluted with toluene to form an organic solution having a D2EHDGAA concentration of 0.3 mol/L, which might become an organic phase.

Structure (SMILES): CCCCC(CC)CN(CC(CC)CCCC)C(=O)COCC(=O)O (stereo not drawn) [Example 5, N,N-bis(2-ethylhexyl)-3-oxapentane-1,5-amic acid]
Nd/Pr separation factor (D2EHDGAA 0.3 mol/L in toluene): 2.5 | Phase separation (D2EHDGAA 0.3 mol/L in toluene): definite

Structure (SMILES): CCCCC(CC)CN(CC(CC)CCCC)C(=O)COCC(=O)O (stereo not drawn) [Example 1, N,N-bis(2-ethylhexyl)-3-oxapentane-1,5-amic acid]
Nd/Pr separation factor (D2EHDGAA 0.3 mol/L in hexanol): 2.5 | Phase separation (D2EHDGAA 0.3 mol/L in hexanol): definite

Nd/Pr separation factor (DODGAA 0.3 mol/L in hexanol): 2.5 | Phase separation (DODGAA 0.3 mol/L in hexanol): definite
Structure (SMILES): CCCCCCCCN(CCCCCCCC)C(=O)COCC(=O)O [Example 2, N,N-dioctyl-3-oxapentane-1,5-amic acid]

Structure (SMILES): CCCCC(CC)CN(CC(CC)CCCC)C(=O)COCC(=O)O (stereo not drawn) [Example 6, N,N-bis(2-ethylhexyl)-3-oxapentane-1,5-amic acid]
Nd/Pr separation factor (D2EHDGAA 0.3 mol/L in toluene): 2.5 | Phase separation (D2EHDGAA 0.3 mol/L in toluene): definite

Structure (SMILES): CCCCC(CC)CN(CC(CC)CCCC)C(=O)COCC(=O)O (stereo not drawn) [Example 3, N,N-bis(2-ethylhexyl)-3-oxapentane-1,5-amic acid]
Nd/Pr separation factor (D2EHDGAA 0.3 mol/L in kerosene): 2.5 | Phase separation (D2EHDGAA 0.3 mol/L in kerosene): definite

Structure (SMILES): CCCCC(CC)CN(CC(CC)CCCC)C(=O)COCC(=O)O (stereo not drawn) [Example 4, N,N-bis(2-ethylhexyl)-3-oxapentane-1,5-amic acid]
Nd/Pr separation factor (D2EHDGAA 0.3 mol/L in kerosene): 2.5 | Phase separation (D2EHDGAA 0.3 mol/L in kerosene): definite
